Data set [1] has as its system monkeys. Briefly: BuTAC-induced emesis and its inhibition by domperidone. The data set is classed as in vivo, Cebus Apella. The procedure: S1 Table. Emesis BuTAC / Domperidone
BuTAC 0.01 mg/kg / 1 in 7
Domperidone was purchased from Tocris Bioscience (Bristol, United Kingdom) and dissolved
in 0.9% saline. The compound was administered subcutaneously where after the animals

Data set [2] deals with T1, human M5 muscarinic receptor (Homo sapiens, UniProt P08912).
T1 construct: purchased PerkinElmer Life and Analytical Sciences, Boston, MA
T1 sequence (P08912 1-532): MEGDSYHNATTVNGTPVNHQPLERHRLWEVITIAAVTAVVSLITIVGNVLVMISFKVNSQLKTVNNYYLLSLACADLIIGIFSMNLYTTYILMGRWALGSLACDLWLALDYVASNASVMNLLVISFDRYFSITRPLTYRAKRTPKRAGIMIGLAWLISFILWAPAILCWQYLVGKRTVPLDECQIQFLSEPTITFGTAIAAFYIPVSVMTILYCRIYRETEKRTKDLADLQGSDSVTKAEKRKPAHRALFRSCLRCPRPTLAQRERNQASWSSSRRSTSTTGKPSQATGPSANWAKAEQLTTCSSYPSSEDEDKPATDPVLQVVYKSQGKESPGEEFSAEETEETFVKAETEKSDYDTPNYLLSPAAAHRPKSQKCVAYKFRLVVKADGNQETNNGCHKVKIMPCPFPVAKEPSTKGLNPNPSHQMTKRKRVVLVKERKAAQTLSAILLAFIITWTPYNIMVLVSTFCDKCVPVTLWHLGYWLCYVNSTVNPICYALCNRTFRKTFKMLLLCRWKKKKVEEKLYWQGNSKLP
Briefly: GTP-γ-[35S] binding, antibody capture SPA (agonist and antagonist mode). It is filed as biochemical. The procedure: (§1) The antibody capture scintillation proximity technique previously described by DeLapp et al was used in a 96-well plate to determine GTP-γ-[35S] binding. One hundred μl (20–40 fmol/well) of membrane preparation from CHO cells that stably express the human M1-M5 muscarinic receptors (PerkinElmer Life and Analytical Sciences, Boston, MA) were incubated with varying concentration of test compound (final concentrations from 50pM to 1μM) for 30 min. One μM final concentration of GDP was added to M2 and M4 receptor membranes before incubation. […] (500 pM final concentration; Perkin Elmer Life and Analytical Sciences) was added to each well followed by 30 min of incubation. […] An anti-Gαq/11 antibody was used for the M1-, M3-, and M5 membranes, whereas an anti-Gαi-3 antibody was used for the M2- and M4 membranes (Eli Lilly and Company, Indianapolis, IN). […] By use of a Wallac MicroBeta TriLux scintillation counter (PerkinElmer), the plates were centrifuged for 10 min at 700 × g and counted for 1 min per well. The incubations took place at room temperature in GTP-binding assay buffer (20 mM Hepes, 100 mm NaCl, 5 mM MgC12, pH 7.4). The data were analyzed by use of nonlinear regression for a sigmoidal concentration response curve (GraphPad Prism v. 4.0). Data were normalized to a full agonist response (100 μM oxotremorine-M). […] The antagonist percent inhibition data were normalized to data generated with an EC90 concentration of acetylcholine. The mean relative EC50, IC50, and %Emax, and pKi values were calculated as a mean of at least three independent experiments±SEM. In order to obtain relevant comparisons between subtypes, the experimental system is routinely calibrated with reference agonists (oxotremorine-M, pilocarpine, MCN-A343) to measure full and partial agonism as well as to ensure that the system is not under- or over-reporting functional efficacies. The radioligand binding assays have earlier been described.

Data set [3] has as its target T2, human M4 muscarinic receptor (Homo sapiens, UniProt P08173).
T2 construct: purchased PerkinElmer Life and Analytical Sciences, Boston, MA
T2 sequence (P08173 1-479): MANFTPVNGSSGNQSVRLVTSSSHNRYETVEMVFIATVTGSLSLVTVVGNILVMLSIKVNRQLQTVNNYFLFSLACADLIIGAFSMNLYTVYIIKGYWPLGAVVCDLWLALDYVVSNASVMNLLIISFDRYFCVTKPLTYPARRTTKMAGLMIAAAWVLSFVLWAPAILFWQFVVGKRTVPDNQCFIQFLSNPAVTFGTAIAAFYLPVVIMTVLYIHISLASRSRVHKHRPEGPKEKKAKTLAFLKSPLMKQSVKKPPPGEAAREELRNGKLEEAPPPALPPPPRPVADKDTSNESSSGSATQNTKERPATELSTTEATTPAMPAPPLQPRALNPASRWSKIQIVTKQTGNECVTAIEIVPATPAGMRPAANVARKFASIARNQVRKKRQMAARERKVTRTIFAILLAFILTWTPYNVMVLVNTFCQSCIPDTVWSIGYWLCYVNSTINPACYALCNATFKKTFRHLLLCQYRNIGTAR
Described as above. The data set is classed as biochemical. The procedure:
as §1

Data set [4] deals with T3, human M2 muscarinic receptor (Homo sapiens, UniProt P08172).
T3 construct: purchased PerkinElmer Life and Analytical Sciences, Boston, MA
T3 sequence (P08172 1-466): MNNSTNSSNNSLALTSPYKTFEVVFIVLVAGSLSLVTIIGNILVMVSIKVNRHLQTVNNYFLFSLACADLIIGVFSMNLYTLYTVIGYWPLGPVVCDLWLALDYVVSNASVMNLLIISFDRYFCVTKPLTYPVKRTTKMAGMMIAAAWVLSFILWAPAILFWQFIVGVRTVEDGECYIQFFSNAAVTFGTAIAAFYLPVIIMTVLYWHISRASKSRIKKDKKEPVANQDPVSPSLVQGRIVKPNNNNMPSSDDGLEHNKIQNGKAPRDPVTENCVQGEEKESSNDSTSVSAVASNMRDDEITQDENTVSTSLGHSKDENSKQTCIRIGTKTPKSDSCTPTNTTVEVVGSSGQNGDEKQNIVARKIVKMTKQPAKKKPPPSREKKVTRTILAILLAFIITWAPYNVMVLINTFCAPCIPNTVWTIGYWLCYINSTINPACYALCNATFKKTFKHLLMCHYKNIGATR
The description is as above. It is filed as biochemical. The procedure: (§2) The antibody capture scintillation proximity technique previously described by DeLapp et al was used in a 96-well plate to determine GTP-γ-[35S] binding. One hundred μl (20–40 fmol/well) of membrane preparation from CHO cells that stably express the human M1-M5 muscarinic receptors (PerkinElmer Life and Analytical Sciences, Boston, MA) were incubated with varying concentration of test compound (final concentrations from 50pM to 1μM) for 30 min. One μM final concentration of GDP was added to M2 and M4 receptor membranes before incubation. […] (500 pM final concentration; Perkin Elmer Life and Analytical Sciences) was added to each well followed by 30 min of incubation. Then the labelled membranes were solubilized with 0.27% Nonidet P40 for 30 min where after they were incubated with 20 μl (final dilution of 1:400) of the appropriate rabbit polyclonal Gα antibody (Covance, Princeton, NJ) for 60 min. An anti-Gαq/11 antibody was used for the M1-, M3-, and M5 membranes, whereas an anti-Gαi-3 antibody was used for the M2- and M4 membranes (Eli Lilly and Company, Indianapolis, IN). After 60 min of incubation, 50 μl (1.25 mg/well) anti-rabbit scintillation proximity assay (SPA) beads (GE Healthcare, Piscataway, NJ) were added per well where after the plates were incubated for another 3 h. By use of a Wallac MicroBeta TriLux scintillation counter (PerkinElmer), the plates were centrifuged for 10 min at 700 × g and counted for 1 min per well. The incubations took place at room temperature in GTP-binding assay buffer (20 mM Hepes, 100 mm NaCl, 5 mM MgC12, pH 7.4). The data were analyzed by use of nonlinear regression for a sigmoidal concentration response curve (GraphPad Prism v. 4.0). Data were normalized to a full agonist response (100 μM oxotremorine-M). […] The antagonist percent inhibition data were normalized to data generated with an EC90 concentration of acetylcholine. The mean relative EC50, IC50, and %Emax, and pKi values were calculated as a mean of at least three independent experiments±SEM. In order to obtain relevant comparisons between subtypes, the experimental system is routinely calibrated with reference agonists (oxotremorine-M, pilocarpine, MCN-A343) to measure full and partial agonism as well as to ensure that the system is not under- or over-reporting functional efficacies. The radioligand binding assays have earlier been described.

Data set [5] deals with T4, human M3 muscarinic receptor (Homo sapiens, UniProt P20309).
T4 construct: purchased PerkinElmer Life and Analytical Sciences, Boston, MA
The data set is described as above. It is filed as biochemical. The procedure: as §2

Data set [6] concerns the target M3AChR (Homo sapiens, UniProt P20309). Briefly: Competitive radioligand binding. The note with it: competitive binding; negative log-transformed; read-out: pKi (converted).
Data set [7] has as its system antipsychotic-naïve Cebus Apella monkeys. Put plainly: Side effects of BuTAC alone or with d-amphetamine. Particulars: d-amphetamine 0.5 mg/kg alone. It is filed as in vivo. The procedure: (§3) Seven male Cebus Apella monkeys were used for evaluation the anti-amphetamine effect and the side effect profile of BuTAC. These monkeys were never before administered antipsychotics and had never experienced EPS, but had previously been administered amphetamine. For further evaluation of the EPS potential of BuTAC, the compound was tested in four male and female monkeys, all sensitized to drug-induced EPS by earlier chronic treatment with classical antipsychotic drugs.
(§4) All monkeys received all treatments with at least one week between tests and thus served as their own control. To avoid extended physical contact with the experimenter, the cages were reduced in sized by moving the back wall of the cage closer to the front wall to lightly immobilize the monkey while injecting the test substance in the thigh. This was done at 9 am at test days. After the appropriate pre-treatment time, the monkeys were videotaped in their cages at predefined time points after drug injection.
(§5) The rated primate behaviours and symptoms were the following: unrest, stereotypy, arousal, sedation and bradykinesia (Table 1). All monkeys were videotaped in 90-sec. sessions at specific time points throughout the test sessions. The videotapes were rated for amphetamine-induced behaviours and EPS by two experienced raters blinded to the treatment of the animal by means of a rating scale adapted from Peacock et al. and previously described by Andersen et al. (Table 1). In case of any discrepancy between the two ratings, the recording in question was re-evaluated and a rating agreed upon. The monkeys were videotaped at t = 30, 60, 90, 135, 150, 165, 180, 240, 300 min after BuTAC (or vehicle) administration. For the combination studies, d-amphetamine was injected at t = 120 min. Oral dyskinesia was measured in counts per 90 sec. The severity of other behaviours and symptoms were rated on a scale ranging from 0 (not present) to 6 (extreme presence).
(§6) For evaluation of anti-amphetamine effects, BuTAC was tested in doses of 0.001, 0.003, 0.01 mg/kg in combination with 0.5 mg/kg of d-amphetamine. BuTAC or peanut oil vehicle was injected s.c. at approximately 9 a.m. Pre-treatment time before s.c. injection of amphetamine was 120 min. For evaluation of side effects, BuTAC was tested alone at doses of 0.001, 0.003 and 0.01 mg/kg in antipsychotic-naïve monkeys and at doses of 0.003 and 0.01 mg/kg in monkeys sensitized to extrapyramidal side effects (EPS) by earlier long-term treatment with first generation antipsychotics. […] None of the animals were sacrificed.
(§7) Data from the experiments where BuTAC was administered alone collected at t = 60, 180, 300 min are presented. For the d-amphetamine / BuTAC study, data collected at t(amp) = 60, 120 and 180 min (t = 180, 240, 300 min) are reported. Data were analyzed for overall treatment effects at each time point by means of the non-parametric Friedman’s test for repeated measures. The Student Newman-Keuls comparison procedure was used to analyze for specific dose effects. For all tests, the accepted level of significance was p<0.05.

Data set [8] shares this test system. Briefly: d-Amphetamine-induced behaviour (unrest, stereotypies, arousal), video rating. The data set is classed as in vivo. Here is the method:
as §3, §4, §5, §6, §7

Data set [9] relates to schizophrenic patients. Details: method as in PMID 13425257. Particulars: subcutaneous injection, twenty-three schizophrenic patients; cited from earlier work.
Data set [10] deals with monkeys. Also on record: method as in PMID 10435384. The note with it: cited from earlier work.
The mark [11] stands for this setting: antagonist mode, maximal inhibition of EC90 agonist response.
[12] abbreviates: percentage of maximum 100 μM oxotremorine-M signal, read-out: % Emax.
[13] abbreviates: percentage of maximum 100 μM oxotremorine-M signal.

Each structure is given as a SMILES string.

T4 sequence (P20309 whole entry): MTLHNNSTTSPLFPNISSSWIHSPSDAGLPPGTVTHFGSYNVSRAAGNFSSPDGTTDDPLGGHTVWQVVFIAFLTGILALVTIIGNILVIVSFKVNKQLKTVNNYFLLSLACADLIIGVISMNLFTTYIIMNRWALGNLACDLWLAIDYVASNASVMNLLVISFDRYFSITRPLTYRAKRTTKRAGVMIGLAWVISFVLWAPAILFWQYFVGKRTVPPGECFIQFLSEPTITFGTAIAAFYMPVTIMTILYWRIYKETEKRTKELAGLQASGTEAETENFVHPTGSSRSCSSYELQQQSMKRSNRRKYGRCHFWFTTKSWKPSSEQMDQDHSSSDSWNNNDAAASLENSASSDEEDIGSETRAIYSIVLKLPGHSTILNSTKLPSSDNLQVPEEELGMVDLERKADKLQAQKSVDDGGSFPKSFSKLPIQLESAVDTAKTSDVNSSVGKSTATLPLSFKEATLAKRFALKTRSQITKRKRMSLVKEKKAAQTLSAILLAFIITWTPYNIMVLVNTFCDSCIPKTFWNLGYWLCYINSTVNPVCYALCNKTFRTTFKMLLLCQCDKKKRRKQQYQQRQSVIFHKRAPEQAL
M3AChR, sequence (P20309 whole entry): as above

`O=c1[nH]c2ccccc2n1CCCN1CCC(n2c(=O)[nH]c3cc(Cl)ccc32)CC1` [domperidone]: the “Emetic events (vomiting), monkeys with emesis” value is 3/7 in [1] (BuTAC 0.01 mg/kg / domperidone 0.05 mg/kg s.c.) and 1/7 in data set [1] (BuTAC 0.01 mg/kg / domperidone 0.10 mg/kg s.c.). In addition, the “Effect on BuTAC (0.01 mg/kg)-induced emesis” value in data set [1] (domperidone 0.05 and 0.1 mg/kg) is listed as “dose dependently inhibited”.

`CCCCCCOc1nsnc1C1=CCCN(C)C1` [Xanomeline, xanomeline]: the “% Inhibition” value in data set [2] (setting [11]) stood at 81.8 ± 18.5%; in data set [3] (setting [11]), 51.4 ± 2.61%; in data set [4] (setting [11]) it was 19.4 ± 0.77%; in data set [5] (setting [11]), 87.6 ± 6.79%. Also, the maximum response (Emax) in [2] (setting [12]) is 28.7 ± 0.7%; in data set [3] (setting [12]), 41.8 ± 1.99%; in data set [4] (setting [13]) it was 55.2 ± 5.12%; in data set [5] (setting [13]), 13.6 ± 0.56%. Further, the EC50 in [5] (agonist mode, mean ± SEM of negative log-transformed values, read-out: Rel pEC50 (converted)) is 17.8 nM. Moreover, the IC50 in data set [5] (antagonist mode against EC90 of agonist, negative log-transformed, read-out: Rel pIC50 (converted)) was 832 nM. Besides, the Ki in data set [6] was 27.5 nM.

Turning to `C[C@H](N)Cc1ccccc1.C[C@H](N)Cc1ccccc1.O=S(=O)(O)O` [d-amphetamine, d-Amphetamine sulphate, reference compound], in [7], the “Emetic events (vomiting) (monkeys affected)” value is on record as 0, the “Salivation (monkeys affected)” value is 0 and the “Sedation 2 ≤ X ≤ 5 (monkeys affected)” value turned out to be 0. Also, the Stereotypies entry in data set [8] (amphetamine 0.5 mg/kg alone, all three test times) is on record as “significantly induced stereotypies”. Besides, the Arousal entry in data set [8] (d-amphetamine 0.5 mg/kg alone, all test times) is listed as “induced arousal”. The Unrest result in data set [8] (d-amphetamine 0.5 mg/kg alone, all time points, relative to vehicle) is “significantly increased unrest”.

For the molecule `COC(=O)C1=CCCN(C)C1` [arecoline], in data set [9], the “Patients with clinical improvement (“lucid intervals”)” value is “more than 80%”.

Turning to `O=C(CCCN1CCC(O)(c2ccc(Cl)cc2)CC1)c1ccc(F)cc1` [haloperidol], the “Minimal effective dose to inhibit amphetamine-induced behaviour” value in data set [10] is 0.015 mg/kg.

The values above are taken from publication PMC4399838, “Antipsychotic-Like Effect of the Muscarinic Acetylcholine Receptor Agonist BuTAC in Non-Human Primates” (PLoS ONE, 2015).
